Measured values published in a melting point compilation (Tetko et al.; mined from patent text by program, amines drawn as free bases though some values may be those of a salt).

| Compound | melting point [°C] |
| --- | --- |
| O=C(O)CCCOc1ccc(C2=NNC(=O)CC2)cc1Cl | 195 to 197 |
| CC(c1oc2ccccc2c(=O)c1-c1cccc(F)c1)n1nc(-c2cc(O)cc(Cl)c2)c2c(N)ncnc21 (stereo unspecified) | 122 to 124 |
| [N-]=[N+]=CC(=O)CC1CCCCC1 | 58 to 62 |
| CC(C)(C)OC(=O)N[C@@H](CO)C(=O)NCCO | 74 to 76 |
| COC(=O)C1=C(C)NC(C)=C(C(=O)OCCN2CCN(C(c3ccc(OC)cc3)c3ccc(OC)cc3)CC2)C1c1cccc([N+](=O)[O-])c1 (stereo unspecified) | 76 to 80 |
| CCN=C(c1ccc(OC)c(OC)c1)N1CCCc2cc(C3=NNC(=O)SC3C)ccc21 (stereo unspecified) | 208 |
| N#Cc1ccc(N(Cc2ccc(OS(N)(=O)=O)cc2)n2cnnc2)cc1-c1cc2ccccc2o1 | 202 to 203 |
| CCOC(=O)Cc1ccc2oc(-c3ccc(Cl)cc3)nc2c1 | 81 to 82 |
| O=C(O)C(CCCN1C(=O)c2ccccc2C1=O)NS(=O)(=O)c1ccc(-c2ccc(Cl)cc2)cc1 (stereo unspecified) | 179 to 181 |
| CN(SC(Cl)(Cl)Cl)c1nc(C(Cl)(Cl)Cl)ns1 | 106 |
| CC(NC(=O)Cc1cc(F)cc(F)c1)C(=O)NC1C(=O)NC(c2ccccc2)c2ccccc21 (stereo unspecified) | 244 |
| CCCN(CCC)C1Cc2cccc3c2N(CCC3)C1 (stereo unspecified) | 112 to 116 |
| COC(=O)c1cc(-c2c(OC)cccc2OC)n(-c2ccc(NS(=O)(=O)c3ccc(C)cc3)cc2CC(C)C)n1 | 224 |
| COC(=O)c1sc2nc(C(C)C)ccc2c1O | 80 to 81 |
| CC(C)(C)C(=O)OCNc1nc(OCc2ccc(F)cc2)ncc1F | 134 to 135 |
| COc1ccc(Cc2oc3cccc(O)c3c2C)cc1 | 130 to 133 |
| CC(C)CC(=O)Nc1cccc(-c2ccnc3c(-c4cccc(-c5ccccc5)c4)cnn23)c1 | 182 to 185 |
| C[C@@H](n1cnc2cc(Cl)ccc2c1=O)[C@](O)(Cn1cncn1)c1ccccc1F | 124 to 129 |
| CC(=O)COc1ccc2cc(S(N)(=O)=O)sc2c1 | 181 to 185 |
| CC(C)(C)c1cc(SC2(Sc3cc(C(C)(C)C)c(O)c(C(C)(C)C)c3)CCCC2)cc(C(C)(C)C)c1O | 138 to 143 |
| O=C(CCC(O)c1ccccc1)N1CCCCC1 (stereo unspecified) | 42 to 44 |
| Cc1nc(NC(=O)Nc2cccc3c2C2CCCCN2C3=O)cs1 (stereo unspecified) | 146 |
| CC(=O)c1cnc2c(NC(=O)c3c(Cl)cccc3Cl)cccc2c1N1CCOCC1 | 231 to 233 |
| O=C1c2nccnc2C(=O)N1c1ccc2ccc(O)nc2n1 | 373 |
| COc1cccc([C@H](C(C)C)N2CCC(c3noc4cc(F)ccc34)CC2)c1 | 40 to 42 |
| COc1cc2c(cc1OC)C1=NCC(CBr)N1C(SC)=N2 (stereo unspecified) | 225 |

| Compound | melting point [°C] |
| --- | --- |
| Brc1ccc2c(c1)COCO2 | 43 to 47 |
| CC(=O)Nc1cc2c(cc1C#N)C=CC(C)(C)O2 | 136 to 137 |
| CCCCc1nc2cc(Br)cc(C(=O)O)c2n1Cc1ccccc1Cl | 254 to 255 |
| O=Cc1c(Br)ncn1Cc1cc2c(cc1Cl)OCO2 | 136 |
| CN1CCC(=C2c3ccccc3Oc3ccc(C(F)(F)F)cc32)CC1 | 82 to 83 |
| COc1ccc(COc2ccc(Oc3c(C)cc(/C=C/C(=O)N4CCN(Cc5ccc(/C=C/COc6ccc(C)cc6)cc5)CC4)cc3C)nc2)cc1 | 130 to 132 |
| CCCn1cc(C(=O)O)c2ccc(Cl)cc21 | 179 to 180 |
| CCNC(=O)Nc1nc2ccc(Cc3ccccn3)cc2s1 | 184 to 185 |
| CNC(=NCCSSCc1nc[nH]c1C)NC#N | 137 to 142 |
| CS(=O)(=O)NC1CCCOc2ccc([N+](=O)[O-])cc21 (stereo unspecified) | 96 to 98 |
| COC(COc1cc(C)cc(O)c1)OC | 73 to 75 |
| NC(=O)c1cccnc1Nc1cccc([N+](=O)[O-])c1 | 240 to 241 |
| O=C(Br)Cc1ccc(-c2cccc(Cl)c2)cc1 | 63 to 65 |
| OCCCCc1c[nH]c2ccccc12 | 189 to 190 |
| CC(C)(C)c1cccc(C[C@@H](NC(=O)c2cccc3c(Cl)cccc23)[C@@H](O)c2cccc(Cl)c2)c1 (racemic) | 91 to 93 |
| CS(C)=Nc1nc(OCc2ccccc2)ncc1F | 125 to 129 |
| CN(C(=O)c1ccc(N)cc1)[C@@H]1CN(C2CCCCC2)C[C@H]1O (relative stereo) | 180 to 182 |
| O=C(NC(=S)N1CCN(c2nc3cccccc-3n2)CC1)c1ccccc1 | 182 to 185 |
| CNC(=O)n1nc(Oc2ncc(C(F)(F)F)cc2Cl)c(C)c1C | 117 to 118 |
| CCCCCCCCC(SCCCCCC)C(=O)Nc1c(OCC)ccc2ncccc12 (stereo unspecified) | 88 to 90 |
| CC(=O)OC1SCC2C1N(Cc1ccccc1)C(=O)N2Cc1ccccc1 (stereo unspecified) | 72 to 74 |
| CC(O)CCc1ccc(-c2ccccc2)cc1 (stereo unspecified) | 74 to 75 |
| Cc1cccc(-c2[nH]c(C(C)C)nc2-c2cccc(-c3ccc4c(c3)C=CS4(=O)=O)c2)n1 | 137 to 138 |
| CC(C)(C)OC(=O)N1CCNC[C@H]1C(c1ccccc1)c1ccccc1 | 100 to 105 |
| CCOC(=O)c1cc(C#N)c(C=O)nc1NC(C)CC (stereo unspecified) | 37 to 38 |
